Experimental data taken from the NIST ThermoML archive (doi:10.1016/j.jct.2010.08.010).
± gives the expanded uncertainty stated by the source.

Conditions: Liquid, Buoyancy - hydrostatic balance with magnetic suspension - one sinker

C1CCCCC1 [cyclohexane]
Conditions	mass density [kg/m3]
293.15 K, 99.46 kPa	778.632 ± 0.18
293.15 K, 1102 kPa	779.471 ± 0.18
293.15 K, 2002.4 kPa	780.22 ± 0.18
293.15 K, 4003.9 kPa	781.856 ± 0.18
293.15 K, 6003.8 kPa	783.454 ± 0.18
293.15 K, 8003.3 kPa	785.025 ± 0.18
293.15 K, 10042 kPa	786.595 ± 0.18
293.15 K, 12046 kPa	788.105 ± 0.18
293.15 K, 13919 kPa	789.495 ± 0.18
293.15 K, 15982 kPa	790.995 ± 0.18
293.15 K, 17946 kPa	792.401 ± 0.18
293.15 K, 20017 kPa	793.855 ± 0.18
313.15 K, 102.48 kPa	759.667 ± 0.18
313.15 K, 1139 kPa	760.675 ± 0.18
313.15 K, 2012.2 kPa	761.509 ± 0.18
313.15 K, 4102.4 kPa	763.47 ± 0.18
313.15 K, 5932.8 kPa	765.157 ± 0.18
313.15 K, 7910.5 kPa	766.936 ± 0.18
313.15 K, 10018 kPa	768.784 ± 0.18
313.15 K, 12069 kPa	770.545 ± 0.18
313.15 K, 13965 kPa	772.137 ± 0.18
313.15 K, 15902 kPa	773.737 ± 0.18
313.15 K, 17956 kPa	775.394 ± 0.18
313.15 K, 20142 kPa	777.123 ± 0.18
333.15 K, 1112.4 kPa	741.367 ± 0.17
333.15 K, 2043.6 kPa	742.401 ± 0.17
333.15 K, 3988 kPa	744.517 ± 0.17
333.15 K, 5966.8 kPa	746.613 ± 0.17
333.15 K, 8141.8 kPa	748.853 ± 0.17
333.15 K, 10007 kPa	750.72 ± 0.17
333.15 K, 11994 kPa	752.664 ± 0.18
333.15 K, 14093 kPa	754.666 ± 0.18
333.15 K, 15963 kPa	756.414 ± 0.18
333.15 K, 17995 kPa	758.261 ± 0.18
333.15 K, 19861 kPa	759.929 ± 0.18
353.15 K, 1109.9 kPa	721.547 ± 0.17
353.15 K, 1973.2 kPa	722.669 ± 0.17
353.15 K, 4000 kPa	725.242 ± 0.17
353.15 K, 6001.3 kPa	727.698 ± 0.17
353.15 K, 8046.5 kPa	730.125 ± 0.17
353.15 K, 10046 kPa	732.423 ± 0.17
353.15 K, 11820 kPa	734.413 ± 0.17
353.15 K, 13860 kPa	736.633 ± 0.17
353.15 K, 15940 kPa	738.835 ± 0.17
353.15 K, 18023 kPa	740.978 ± 0.17
353.15 K, 20003 kPa	742.965 ± 0.17
373.15 K, 1115.5 kPa	701.065 ± 0.16
373.15 K, 1950.1 kPa	702.346 ± 0.16
373.15 K, 4154.1 kPa	705.638 ± 0.17
373.15 K, 6126 kPa	708.455 ± 0.17
373.15 K, 8029.4 kPa	711.079 ± 0.17
373.15 K, 9951.2 kPa	713.63 ± 0.17
373.15 K, 12097 kPa	716.383 ± 0.17
373.15 K, 13877 kPa	718.592 ± 0.17
373.15 K, 16148 kPa	721.319 ± 0.17
373.15 K, 18078 kPa	723.568 ± 0.17
373.15 K, 19877 kPa	725.607 ± 0.17
393.15 K, 1162.9 kPa	679.792 ± 0.16
393.15 K, 1960.3 kPa	681.265 ± 0.16
393.15 K, 3901.4 kPa	684.723 ± 0.16
393.15 K, 5983.9 kPa	688.253 ± 0.16
393.15 K, 7986.4 kPa	691.487 ± 0.16
393.15 K, 9903.3 kPa	694.452 ± 0.16
393.15 K, 11975 kPa	697.527 ± 0.16
393.15 K, 13821 kPa	700.163 ± 0.16
393.15 K, 16029 kPa	703.195 ± 0.16
393.15 K, 18027 kPa	705.845 ± 0.17
393.15 K, 20004 kPa	708.371 ± 0.17
413.15 K, 1196.7 kPa	657.32 ± 0.15
413.15 K, 2172.6 kPa	659.527 ± 0.15
413.15 K, 4146.4 kPa	663.767 ± 0.16
413.15 K, 6122.3 kPa	667.756 ± 0.16
413.15 K, 8132.6 kPa	671.583 ± 0.16
413.15 K, 10013 kPa	674.989 ± 0.16
413.15 K, 11993 kPa	678.397 ± 0.16
413.15 K, 14004 kPa	681.703 ± 0.16
413.15 K, 16053 kPa	684.936 ± 0.16
413.15 K, 18098 kPa	688.022 ± 0.16
413.15 K, 19935 kPa	690.694 ± 0.16
433.15 K, 1086.7 kPa	632.817 ± 0.15
433.15 K, 2070.6 kPa	635.63 ± 0.15
433.15 K, 4050.3 kPa	640.931 ± 0.15
433.15 K, 6077 kPa	645.937 ± 0.15
433.15 K, 8181.7 kPa	650.742 ± 0.15
433.15 K, 10077 kPa	654.811 ± 0.15
433.15 K, 12111 kPa	658.913 ± 0.15
433.15 K, 13890 kPa	662.325 ± 0.15
433.15 K, 15959 kPa	666.096 ± 0.16
433.15 K, 18073 kPa	669.76 ± 0.16
433.15 K, 20010 kPa	672.969 ± 0.16
453.15 K, 2100.8 kPa	609.942 ± 0.14
453.15 K, 4117.3 kPa	616.844 ± 0.15
453.15 K, 6121.3 kPa	623.004 ± 0.15
453.15 K, 8117.4 kPa	628.596 ± 0.15
453.15 K, 9915.4 kPa	633.254 ± 0.15
453.15 K, 11931 kPa	638.115 ± 0.15
453.15 K, 13935 kPa	642.628 ± 0.15
453.15 K, 15959 kPa	646.918 ± 0.15
453.15 K, 18103 kPa	651.206 ± 0.15
453.15 K, 19890 kPa	654.601 ± 0.15
473.15 K, 2403.5 kPa	582.448 ± 0.14
473.15 K, 3924.9 kPa	589.431 ± 0.14
473.15 K, 6045.2 kPa	597.933 ± 0.14
473.15 K, 8093.2 kPa	605.148 ± 0.14
473.15 K, 9884.3 kPa	610.832 ± 0.14
473.15 K, 11911 kPa	616.733 ± 0.15
473.15 K, 13943 kPa	622.171 ± 0.15
473.15 K, 16018 kPa	627.319 ± 0.15
473.15 K, 18133 kPa	632.216 ± 0.15
473.15 K, 20025 kPa	636.335 ± 0.15
